Measured values from the NIST ThermoML archive (doi:10.1016/j.jct.2005.01.009).

Assay: mn = molality of the nth substance listed, in mol/kg
Conditions: 101 kPa, Liquid; for speed of sound: Linear variable-path acoustic interferometer

CCCCn1cc[n+](C)c1.[Br-] [1-butyl-3-methylimidazolium bromide] + CO
Conditions | mass density, 298.15 K [kg/m3] | mass density, 303.15 K [kg/m3] | mass density, 308.15 K [kg/m3] | mass density, 313.15 K [kg/m3] | mass density, 318.15 K [kg/m3] | speed of sound, 298.15 K [m/s] | speed of sound, 303.15 K [m/s] | speed of sound, 308.15 K [m/s] | speed of sound, 313.15 K [m/s] | speed of sound, 318.15 K [m/s]
m1 = 0.0473 | 790.393 | 785.688 | 780.958 | 776.204 | 771.426 | – | 1090.5 | 1074.3 | 1058.2 | 1042.3
m1 = 0.0767 | 792.789 | 788.091 | 783.371 | 778.627 | 773.86 | – | 1092.6 | 1076.5 | 1060.5 | 1044.7
m1 = 0.1497 | 798.175 | 793.495 | 788.794 | 784.073 | 779.323 | 1114.1 | 1098 | 1081.9 | 1066 | 1050.2
m1 = 0.2612 | 806.303 | 801.654 | 796.988 | 792.294 | 787.582 | 1121.7 | 1105.7 | 1089.7 | 1073.9 | 1058.2
m1 = 0.3434 | 812.207 | 807.572 | 802.921 | 798.249 | 793.553 | 1127.1 | 1111.1 | 1095.2 | 1079.4 | 1063.8
m1 = 0.4912 | 822.389 | 817.794 | 813.177 | 808.542 | 803.883 | 1136.4 | 1120.6 | 1104.8 | 1089.2 | 1073.8
m1 = 0.7273 | 837.955 | 833.402 | 828.837 | 824.253 | 819.66 | 1151 | 1135.4 | 1119.9 | 1104.5 | 1089.2
m1 = 0.9756 | 852.578 | 848.25 | 843.727 | 839.188 | 834.634 | 1164.1 | 1148.7 | 1133.4 | 1118.2 | 1103.1
m1 = 1.405 | 876.422 | 871.97 | 867.512 | 863.046 | 858.563 | 1186.2 | 1171 | 1156 | 1141 | 1126.3
m1 = 2.446 | 924.879 | 920.559 | 916.245 | 911.924 | 907.596 | 1233.3 | 1218.8 | 1204.4 | 1190.1 | 1175.9
m1 = 3.896 | 976.589 | 972.412 | 968.238 | 964.059 | 959.889 | 1287.4 | 1273.5 | 1259.7 | 1246 | 1232.5

CCCCn1cc[n+](C)c1.[Br-] [1-butyl-3-methylimidazolium bromide] + O
Conditions | mass density, 298.15 K [kg/m3] | mass density, 303.15 K [kg/m3] | mass density, 308.15 K [kg/m3] | mass density, 313.15 K [kg/m3] | mass density, 318.15 K [kg/m3] | speed of sound, 298.15 K [m/s] | speed of sound, 303.15 K [m/s] | speed of sound, 308.15 K [m/s] | speed of sound, 313.15 K [m/s] | speed of sound, 318.15 K [m/s]
m1 = 0.0692 | 1000.44 | 999.001 | 997.35 | 995.472 | 993.421 | 1504 | 1515.9 | 1526 | 1534.6 | 1541.9
m1 = 0.1376 | 1003.7 | 1002.2 | 1000.49 | 998.581 | 996.491 | 1511.3 | 1522.7 | 1532.3 | 1540.4 | 1546.9
m1 = 0.2697 | 1009.85 | 1008.28 | 1006.54 | 1004.6 | 1002.47 | 1523.1 | 1533.3 | 1541.9 | 1549.1 | 1555
m1 = 0.6117 | 1024.93 | 1023.15 | 1021.17 | 1019.01 | 1016.68 | 1552.2 | 1561.7 | 1568.7 | 1573.8 | 1577
m1 = 1.28 | 1050.92 | 1048.78 | 1046.56 | 1044.14 | 1041.59 | 1600.3 | 1603.5 | 1605.6 | 1606.7 | 1606.9
m1 = 2.133 | 1078.26 | 1075.78 | 1073.14 | 1070.42 | 1067.58 | 1645.9 | 1644.9 | 1644.1 | 1640.6 | 1637.5
m1 = 3.115 | 1103.8 | 1100.98 | 1098.05 | 1095.04 | 1091.93 | 1682.7 | 1678.3 | 1673.3 | 1667.9 | 1662
m1 = 5.187 | 1143.52 | 1140.26 | 1136.94 | 1133.57 | 1130.13 | 1724.2 | 1716 | 1707.4 | 1698.6 | 1689.6
m1 = 7.792 | 1176.05 | 1172.57 | 1169.05 | 1165.49 | 1161.9 | 1741.2 | 1731.4 | 1721.3 | 1711 | 1700.5

CCCCn1cc[n+](C)c1.[Br-] [1-butyl-3-methylimidazolium bromide] + CCO
Conditions | mass density, 298.15 K [kg/m3] | mass density, 303.15 K [kg/m3] | mass density, 308.15 K [kg/m3] | mass density, 313.15 K [kg/m3] | mass density, 318.15 K [kg/m3] | speed of sound, 298.15 K [m/s] | speed of sound, 303.15 K [m/s] | speed of sound, 308.15 K [m/s] | speed of sound, 313.15 K [m/s] | speed of sound, 318.15 K [m/s]
m1 = 0.0271 | 787.221 | 782.917 | 778.581 | 774.206 | 769.798 | 1145.2 | 1128.3 | 1111.6 | 1094.9 | 1078.3
m1 = 0.0587 | 789.649 | 785.356 | 781.029 | 776.665 | 772.267 | 1147.3 | 1130.5 | 1113.8 | 1097.1 | 1080.6
m1 = 0.0846 | 791.567 | 787.288 | 782.969 | 778.613 | 774.213 | 1148.6 | 1131.9 | 1115.3 | 1098.6 | 1082.1
m1 = 0.1257 | 794.595 | 790.319 | 786.01 | 781.663 | 777.288 | 1150.8 | 1134 | 1117.4 | 1101 | 1084.5
m1 = 0.1587 | 796.91 | 792.647 | 788.343 | 784.006 | 779.628 | 1152.7 | 1136.1 | 1119.4 | 1103 | 1086.5
m1 = 0.2261 | 801.67 | 797.404 | 793.117 | 788.795 | 784.413 | 1155.8 | 1139.7 | 1123.2 | 1106.8 | 1090.5
m1 = 0.3162 | 807.896 | 803.664 | 799.393 | 795.091 | 790.753 | 1160.7 | 1144.3 | 1128 | 1111.7 | 1095.4
